According to patent publication US20110275695A1, “CRYSTALLINE FORMS OF ZOTEPINE HYDROCHLORIDE” (BIONEVIA PHARMACEUTICALS, INC., priority 2008, published 2011):
“Also recorded” adds a separate entry of the source. Structures can show the parent of a compound that is named as a salt. Where two headings read alike, the source gives them in different places.

Columns and labels:
[1] = Equilibrium solubility in water, ambient-temperature slurry, UV measurement; assay type: physicochemical; conditions: for aqueous solubility (in words) / solid recovered from solubility experiment (XRPD analysis): water; for aqueous solubility (in words) / solid recovered from solubility experiment (XRPD analysis) / equilibrium solubility in water: ambient temperature; for equilibrium solubility in water: UV analysis of supernatant
Method: Equilibrium Solubility—UV Measurement: Equilibrium solubility was determined in water using ambient-temperature slurry experiments. Samples were prepared with excess solids and agitated on a wheel for at least 3 days. Remaining solids were separated from the mixture by centrifugation. The clear supernatant was pipeted to a separate container and the concentration determined through ultraviolet (UV) spectrophotometry, diluting the sample with additional water if necessary. […] Equivalent zotepine hydrochloride salt concentrations were calculated from the Beer's Law plot generated front zotepine hydrochloride salt aqueous standards and adjusted to account for the stoichiometry of the solids utilized. Retained solids were analyzed by X-ray powder diffraction, if sufficient solids were present. Concentrations of aqueous solutions of BNV-218 were determined through ultraviolet absorbance. Ultraviolet spectrophotometry: Solutions were analyzed using a Cary 50 dual-beam spectrophotometer. They were analyzed at ambient temperature in a 1.000-cm quartz cuvette. Scans at 600 nm/min in the range of 800-200 nm were performed to determine an optimal wavelength for concentration measurement. The cuvette was washed with methanol, followed by water, and the detector was then zeroed prior to analysis of each sample. Wavelength calibration was performed using holmium oxide. The photometric accuracy was verified by measuring the intensity of the light at the detector when filters of known optical density were placed in the path of the beam.

[2] = Approximate aqueous solubility by portion-wise addition of solid to water, visual inspection
Method: An attempt was made to measure the aqueous solubility of zotepine hydrochloride. To a 1-dram vial was charged 99 mg of zotepine hydrochloride, and 1 mL of HPLC-grade water (obtained from Mallinckrodt) was added.
A 0.5-mL aliquot of the resulting zotepine hydrochloride aqueous solution was then charged to a second 2-dram vial, and 50 mg of zotepine hydrochloride (50 mg) was added. […] At this point, the procedure was discontinued.

[3] = Intrinsic dissolution in water at 25° C. (Woods apparatus pellets, UV at 302 nm); assay type: physicochemical; conditions: for intrinsic dissolution rate: 50 RPM, 900 mL, mean of three pellets, equivalent hydrochloride salt concentration, not normalized for surface area
Method: Intrinsic Dissolution: Pellets of approximately 200 mg were pressed at 3000 lbs. for 1 minute in a standard Woods apparatus, with a surface area of 0.5 cm^2. Three pellets were tested for each material, testing one material at a time. The samples were rotated in a VanKel dissolution apparatus, with automated sampling, at 50 RPM in 900 mL of water at 25° C. Aliquots were taken every two minutes and not filtered prior to analysis. Concentrations were determined through UV absorbance at approximately 302 nm, to avoid potential interference from benzoic acid. Equivalent hydrochloride salt concentrations were calculated from the Beer's Law plot generated from zotepine hydrochloride salt aqueous standards.
To determine the rate of dissolution of each material, a plot was generated of the absorbance over time for each vessel. From this plot, a linear region was chosen from the initial dissolution period of each material: starting at the first time point when the measured absorbance exceeded the minimum measured absorbance value in the Beer's Law relationship generated from zotepine hydrochloride salt aqueous standards. The end of the linear region was chosen as either 30 minutes after the first time point, or at the maximum recorded absorbance value that falls within the Beer's Law Relationship. Equivalent hydrochloride salt concentrations were plotted versus time for the regions. A straight-line was fit to the data for each vessel. The slope of these lines provides the dissolution rate for each of the materials, expressed as [μg/mL]/min. The mean of the three rates is the reported rate for each material, expressed as equivalent hydrochloride salt concentration, for direct comparison of the materials. The rates were not normalized for the surface area of the pellet.

[4] = pharmaceutical formulations containing the zotepine free base; cited from earlier work
[5] = cited from earlier work
[6] = listed as crystalline zotepine hydrochloride, hydrochloride

## CN(C)CCOC1=Cc2ccccc2Sc2ccc(Cl)cc21 [zotepine free base, 2-[(8-chlorodibenzo[b,f]thiepin-10-yl)oxy]-N,N-dimethylethylamine, reference compound]
[1]
  largest recorded UV absorbance at end of equilibrium solubility experiment: 0.02
  aqueous solubility (in words): negligible
  solid recovered from solubility experiment (XRPD analysis): zotepine free base
[2]
  approximate solubility / calculated aqueous concentration from amount of solid added: less than 4 mg/mL
[3]
  dissolution rate in water (in words): too low to be calculated; also recorded: negligible; also recorded: very close to zero
[3]; 302 nm, experiment ended at 2,880 minutes
  maximum UV absorbance in intrinsic dissolution experiment: 0.02
[4]
  bioavailability: 7-13%
[5]
  solubility in water as reported: relatively insoluble in water

## CN(C)CCOC1=Cc2ccccc2Sc2ccc(Cl)cc21 [zotepine hydrochloride]
[1]; [6]
  aqueous solubility (in words): significantly higher
[2]
  surface activity (suds on addition of solid to water, visual inspection): high surface activity
[3]; listed as zotepine hydrochloride salt, hydrochloride
  intrinsic dissolution rate: 3.9 [μg/mL]/min
[3]; [6]
  dissolution rate in water (in words): significantly higher

## CN(C)CCOC1=Cc2ccccc2Sc2ccc(Cl)cc21.CN(C)CCOC1=Cc2ccccc2Sc2ccc(Cl)cc21.Cl.Cl.O=C(O)c1ccccc1 [2:1 zotepine hydrochloride benzoic acid cocrystal]
[2]; water, portion-wise addition of solid, ambient temperature
  approximate solubility / calculated aqueous concentration from amount of solid added: ≥ 56 mg/mL
[3]
  dissolution rate in water (in words): intermediate between those of the 1:1 zotepine hydrochloride benzoic acid cocrystal and zotepine hydrochloride
  solid recovered after dissolution experiment (XRPD analysis): converts to the 2:1 zotepine hydrochloride benzoic acid cocrystal
  intrinsic dissolution rate: 2.3 [μg/mL]/min

## CN(C)CCOC1=Cc2ccccc2Sc2ccc(Cl)cc21.Cl.O=C(O)c1ccccc1 [1:1 zotepine hydrochloride benzoic acid cocrystal]
[1]
  equilibrium solubility in water: ~44 mg/mL
  solid recovered from solubility experiment (XRPD analysis): 1:1 benzoic acid cocrystal
[1]; listed as 1:1 benzoic acid cocrystal
  equilibrium solubility in water: approximately 44 mg/mL
[2]; water
  surface activity (suds on addition of solid to water, visual inspection): exhibited surface activity
[3]
  dissolution rate in water (in words): intermediate between those of zotepine free base and zotepine hydrochloride
  solid recovered after dissolution experiment (XRPD analysis): the 1:1 zotepine hydrochloride benzoic acid cocrystal
  intrinsic dissolution rate: 0.3 [μg/mL]/min
